The values below come from ChEMBL document CHEMBL1201862, “PubChem BioAssay data set” (2004).

Active and inactive are the calls of the source.

One may read the AC50 as the concentration giving half of the maximal activity seen. Broadly, the CC50 is the concentration giving 50% cytotoxicity. As usually defined, the EC50 is the concentration at which the effect is half-maximal. For orientation: IC50 means the concentration that gives 50% inhibition.

Experiment [1] has as its target T1, Replicative DNA helicase DnaB (Mycobacterium tuberculosis, UniProt P9WMR3).
T1 sequence (P9WMR3 whole entry): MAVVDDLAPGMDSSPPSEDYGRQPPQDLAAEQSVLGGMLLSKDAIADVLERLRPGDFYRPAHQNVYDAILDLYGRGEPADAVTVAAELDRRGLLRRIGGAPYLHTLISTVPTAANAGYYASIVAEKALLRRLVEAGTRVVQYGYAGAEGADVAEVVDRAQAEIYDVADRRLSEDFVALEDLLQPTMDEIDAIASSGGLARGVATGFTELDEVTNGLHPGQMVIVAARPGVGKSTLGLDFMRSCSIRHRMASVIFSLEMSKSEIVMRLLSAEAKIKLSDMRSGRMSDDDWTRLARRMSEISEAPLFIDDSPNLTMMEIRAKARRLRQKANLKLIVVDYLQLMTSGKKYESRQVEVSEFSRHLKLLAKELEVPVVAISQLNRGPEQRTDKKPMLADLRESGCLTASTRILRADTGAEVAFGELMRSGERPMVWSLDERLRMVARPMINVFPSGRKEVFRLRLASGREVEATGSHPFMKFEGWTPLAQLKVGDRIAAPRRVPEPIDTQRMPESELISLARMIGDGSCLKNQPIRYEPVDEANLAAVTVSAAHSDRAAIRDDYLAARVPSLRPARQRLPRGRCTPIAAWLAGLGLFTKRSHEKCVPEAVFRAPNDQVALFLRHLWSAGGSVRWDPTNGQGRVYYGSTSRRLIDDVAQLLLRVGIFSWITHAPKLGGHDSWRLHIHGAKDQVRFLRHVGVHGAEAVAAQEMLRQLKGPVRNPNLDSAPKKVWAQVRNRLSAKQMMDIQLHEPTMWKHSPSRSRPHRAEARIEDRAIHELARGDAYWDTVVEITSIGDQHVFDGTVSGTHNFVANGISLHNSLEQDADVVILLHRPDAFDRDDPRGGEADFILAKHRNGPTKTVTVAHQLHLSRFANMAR
The experiment can be described thus: DnaB intein splicing inhibitors, dose response, biochemical, cell-free fluorescence (AID 449749). The format is functional.

The test system of the next experiment is Vero. The experiment can be described thus: viability of Vero cells under compound – cytotoxicity control for flavivirus capping enzyme inhibitors (AID 588742). The format is functional. The following applies: Chlorocebus sabaeus.
For the next experiment, the target named is T2, Protein RecA (Mycobacterium tuberculosis, UniProt P9WHJ3).
T2 sequence (P9WHJ3 whole entry): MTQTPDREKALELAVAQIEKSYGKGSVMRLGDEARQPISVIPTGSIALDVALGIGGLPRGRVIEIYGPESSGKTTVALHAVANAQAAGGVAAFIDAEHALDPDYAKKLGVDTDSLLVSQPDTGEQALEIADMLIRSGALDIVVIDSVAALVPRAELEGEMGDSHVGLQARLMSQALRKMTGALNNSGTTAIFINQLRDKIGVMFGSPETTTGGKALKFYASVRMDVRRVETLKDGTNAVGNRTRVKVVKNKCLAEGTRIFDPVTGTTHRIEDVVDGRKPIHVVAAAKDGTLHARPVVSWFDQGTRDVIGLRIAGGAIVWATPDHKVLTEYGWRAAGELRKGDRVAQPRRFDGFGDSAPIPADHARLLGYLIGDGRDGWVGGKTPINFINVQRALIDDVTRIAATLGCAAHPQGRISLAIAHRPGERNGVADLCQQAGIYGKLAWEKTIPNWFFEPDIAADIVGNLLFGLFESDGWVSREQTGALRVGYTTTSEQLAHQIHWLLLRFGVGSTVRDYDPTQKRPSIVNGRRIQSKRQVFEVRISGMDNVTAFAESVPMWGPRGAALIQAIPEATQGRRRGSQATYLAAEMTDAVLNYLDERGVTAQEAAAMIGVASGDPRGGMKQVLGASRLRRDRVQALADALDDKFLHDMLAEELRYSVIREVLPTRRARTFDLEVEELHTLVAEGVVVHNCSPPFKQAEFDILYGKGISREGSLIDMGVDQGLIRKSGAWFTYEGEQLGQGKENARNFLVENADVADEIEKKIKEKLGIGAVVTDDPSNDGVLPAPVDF
Put plainly: Fluorescence Cell-Free Homogeneous Dose Retest to Identify Inhibitors of RecA-Intein Splicing Activity. [Related pubchem assays (depositor defined):AID2097, AID2223, AID489010, AID492950]. The format is functional.

Another experiment addresses Genome polyprotein (dengue virus type 2, UniProt P29990). Put plainly: flavivirus cap methylation enzyme inhibition – biochemical, confirmation dose response, primary screen (AID 588689). The format is functional.
The next experiment has as its target T3, Cysteine protease ATG4B (Homo sapiens, UniProt Q9Y4P1).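 Also: Fluorescence-based dose-response confirmation assay measuring inhibition of ATG4B activity.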
T3 sequence (Q9Y4P1 whole entry): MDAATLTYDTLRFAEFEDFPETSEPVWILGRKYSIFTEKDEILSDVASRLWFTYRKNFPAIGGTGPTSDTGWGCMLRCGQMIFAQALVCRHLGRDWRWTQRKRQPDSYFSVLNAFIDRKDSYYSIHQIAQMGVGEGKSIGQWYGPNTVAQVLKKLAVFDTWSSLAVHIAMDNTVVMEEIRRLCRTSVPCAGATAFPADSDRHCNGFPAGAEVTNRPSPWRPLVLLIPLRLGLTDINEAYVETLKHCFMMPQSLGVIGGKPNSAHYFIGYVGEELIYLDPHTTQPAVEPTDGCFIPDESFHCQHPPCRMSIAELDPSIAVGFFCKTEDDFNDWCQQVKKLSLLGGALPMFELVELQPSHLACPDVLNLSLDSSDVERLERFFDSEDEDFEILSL
The format is functional.

The next experiment concerns the target Phospholipase A2 (Homo sapiens, UniProt P04054). The format is functional.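 Also: confirmatory dose-response counterscreen on phospholipase A2, testing hits that came from an ultra-high-throughput screen for ATG4B inhibitors.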
The nature of experiment [2]: Luminescence Cell-Based Dose Confirmation HTS to Identify Activators of 5'UTR Stem-Loop Driven Alpha-Synuclein mRNA Translation in H4 Neuroglioblastoma Cells. [Related pubchem assays: 1829 (Project Summary), 1814 (Primary HTS)]. The format is functional.
A short description of experiment [3]: Luminescence Cell-Based Dose Response HTS to Identify Activators of Luciferase Translation or Activity in H4 […] Cells. [Related pubchem assays: 1829 (Project Summary), 1814 (Primary HTS)]. The format is functional.
The test system of the next experiment is H4. Put plainly: Luminescence Cell-Based Dose Response HTS to Identify Activators of 5'UTR Stem-Loop Driven Prion Protein mRNA Translation in H4 Neuroglioblastoma Cells. [Related pubchem assays: 1829 (Project Summary), 1814 (Primary HTS)]. The format is functional. The following applies: Homo sapiens.
Experiment [4] deals with G-protein coupled receptor 55 (Homo sapiens, UniProt Q9Y2T6). Put plainly: selective activators of receptor GPR55 – imaging, U2OS cells, beta-arrestin-GFP redistribution, primary screen (AID 1961). The format is functional.
Chain of G-protein coupled receptor 55 (Q9Y2T6 whole entry): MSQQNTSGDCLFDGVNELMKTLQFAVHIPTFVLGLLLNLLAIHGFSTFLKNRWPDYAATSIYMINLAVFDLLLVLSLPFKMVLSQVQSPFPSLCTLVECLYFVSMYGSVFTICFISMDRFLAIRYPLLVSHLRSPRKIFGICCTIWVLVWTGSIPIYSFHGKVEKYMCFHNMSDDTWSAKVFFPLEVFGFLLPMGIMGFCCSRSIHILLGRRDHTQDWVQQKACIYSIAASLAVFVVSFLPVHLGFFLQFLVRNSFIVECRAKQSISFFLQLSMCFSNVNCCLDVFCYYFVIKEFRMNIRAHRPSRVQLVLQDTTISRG
The target in a further experiment is Trypsin (Sus scrofa, UniProt P00761). Put plainly: trypsin protease activity blockade – biochemical, quenched peptide fluorescence, cherry-pick, selectivity assay for Rce1 protease inhibitor project, dose response (AID 488789).
Chain of Trypsin (P00761 whole entry): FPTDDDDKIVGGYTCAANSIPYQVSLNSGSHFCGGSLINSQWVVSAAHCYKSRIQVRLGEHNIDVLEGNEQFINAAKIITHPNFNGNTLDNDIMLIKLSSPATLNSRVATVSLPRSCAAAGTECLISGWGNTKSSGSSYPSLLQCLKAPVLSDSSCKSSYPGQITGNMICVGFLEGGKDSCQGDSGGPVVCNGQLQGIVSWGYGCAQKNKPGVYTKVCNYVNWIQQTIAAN
The target of a further experiment is T4, CAAX prenyl protease 2 (Saccharomyces cerevisiae S288c, UniProt Q03530).
T4 sequence (Q03530 whole entry): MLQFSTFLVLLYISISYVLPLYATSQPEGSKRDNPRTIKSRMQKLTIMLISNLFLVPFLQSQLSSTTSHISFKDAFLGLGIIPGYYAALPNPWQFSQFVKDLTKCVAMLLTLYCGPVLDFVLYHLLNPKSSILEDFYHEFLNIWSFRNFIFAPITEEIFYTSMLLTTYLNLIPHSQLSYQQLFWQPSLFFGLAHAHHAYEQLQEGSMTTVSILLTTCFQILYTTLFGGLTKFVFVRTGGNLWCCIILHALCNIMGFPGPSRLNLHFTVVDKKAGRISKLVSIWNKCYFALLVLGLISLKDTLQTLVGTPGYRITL
The format is biochemical.

Chain of Phospholipase A2 (P04054 whole entry): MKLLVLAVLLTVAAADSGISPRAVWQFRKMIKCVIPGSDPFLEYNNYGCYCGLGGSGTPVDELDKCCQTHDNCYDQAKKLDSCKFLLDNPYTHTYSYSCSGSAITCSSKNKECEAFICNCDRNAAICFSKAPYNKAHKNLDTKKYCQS
Chain of Genome polyprotein (P29990 2492-3391 limits assumed): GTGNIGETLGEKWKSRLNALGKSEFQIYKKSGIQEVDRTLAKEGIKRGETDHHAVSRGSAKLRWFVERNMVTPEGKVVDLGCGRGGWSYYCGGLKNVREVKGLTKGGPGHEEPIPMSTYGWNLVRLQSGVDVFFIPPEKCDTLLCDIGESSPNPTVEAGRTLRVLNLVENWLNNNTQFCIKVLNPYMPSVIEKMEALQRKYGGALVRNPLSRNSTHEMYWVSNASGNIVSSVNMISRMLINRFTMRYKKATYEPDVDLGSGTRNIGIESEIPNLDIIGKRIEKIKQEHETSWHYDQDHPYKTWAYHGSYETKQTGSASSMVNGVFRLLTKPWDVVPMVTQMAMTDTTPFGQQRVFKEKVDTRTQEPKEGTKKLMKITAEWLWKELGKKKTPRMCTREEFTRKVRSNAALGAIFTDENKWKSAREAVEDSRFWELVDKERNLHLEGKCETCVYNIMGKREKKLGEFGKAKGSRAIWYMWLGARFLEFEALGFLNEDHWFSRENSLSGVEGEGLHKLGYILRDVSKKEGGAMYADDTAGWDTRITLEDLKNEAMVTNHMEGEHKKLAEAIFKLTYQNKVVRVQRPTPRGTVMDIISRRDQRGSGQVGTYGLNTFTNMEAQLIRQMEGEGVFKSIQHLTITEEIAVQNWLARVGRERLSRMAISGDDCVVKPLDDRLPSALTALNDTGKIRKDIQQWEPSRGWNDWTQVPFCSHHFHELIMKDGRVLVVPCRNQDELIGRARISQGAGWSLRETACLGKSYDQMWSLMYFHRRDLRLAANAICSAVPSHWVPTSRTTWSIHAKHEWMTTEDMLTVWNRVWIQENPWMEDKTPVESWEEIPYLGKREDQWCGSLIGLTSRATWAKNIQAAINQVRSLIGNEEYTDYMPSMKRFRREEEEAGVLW

With `Cc1nn(Cc2ccccc2)c2c1C(c1cccc(Cl)c1)C(C#N)=C(N)O2` (stereo unspecified), the AC50 in [1] was 5.7 µM (active). The 50% cytotoxic concentration (CC50) with Vero was > 40 µM (active). Also, at Protein RecA, the EC50 is 3.26 µM (active). For the same compound, the half-inhibitory concentration (IC50) on Genome polyprotein was > 100 µM (active).

Turning to `Nc1nn(-c2ccccc2)c(N)c1N=Nc1ccccc1`, the IC50 was 11.9 µM (active) on Cysteine protease ATG4B and 9 µM (active) on Phospholipase A2.

As to `O=C(O)c1cccc(CN2C(=O)S/C(=C/c3cccc([N+](=O)[O-])c3)C2=O)c1`, in the experiment on Vero, the cytotoxic concentration (CC50) is > 40 µM (active). Moreover, the IC50 on Genome polyprotein was 83.2 µM (active).

`Clc1ccccc1-c1nc2ccccc2[nH]1`: the EC50 is 0.289 µM (active) in [2], 0.36 µM (active) in experiment [3], 13.7 µM (active) with H4 and 2.24 µM (active) in experiment [4].

Regarding `CC(C)(C)c1ccccc1/N=C/c1ccc2ccccc2n1`, the IC50 was 14.2 µM (active) at Cysteine protease ATG4B and 16.2 µM (active) at Phospholipase A2.

On to `O=C1CSC(c2cn(-c3ccccc3)nc2-c2cc3ccccc3oc2=O)N1Cc1ccco1` (stereo unspecified), for which the half-maximal activity concentration (AC50) at Trypsin was 9.09 µM (active); at CAAX prenyl protease 2 it was 30.8 µM (active).
